# According to patent US20100222423A1, “ASPALATHIN-LIKE DIHYDROCHALCONE, EXTRACTS FROM UNFERMENTED ROOIBOS AND PROCESS FOR PREPARATION” (KNEIPP-WERKE KNEIPP-MITTEL-ZENTRALE GMBH & CO. KG, priority 2007, published 2010):
# Test system: Fischer-344 rats
# Experiment: Tele-Stereo-EEG investigations in the rat (field potentials from frontal cortex, hippocampus, striatum, reticular formation)
# Format: in vivo
# Conditions: for effect on EEG frequencies in comparison with molecular constituents: approximately equimolar administration; for changes in EEG frequencies / power density compared with saline solution: oral single dose 3 or 6 mg/kg, up to 5 hours after application, n=6 rats
# Description: The changes in the EEG (electroencephalography) frequencies was determined after administration of saline solution (control) and the compound of the formula I orally (3 or 6 mg/kg body weight).
# The investigations were carried out analogously to the method described by W. Dimpfel (Dimpfel, W., Preclinical database of pharmaco-specific rat EEG fingerprints (Tele-Stereo-EEG). Eur. J. Med. Res. (2003) δ: 199-207) as follows: 4 Bipolar concentric electrodes together with a microplug on a common baseplate were implanted in six male adult Fischer-344 rats (converted day-night) aged 6 months. The plug served for recording a four-channel transmitter for telemetric transmission of the field potentials derived from frontal cortex, hippocampus, striatum and reticular formation. The signals were subjected to a fast Fourier transformation on a computer system (“EEG analysis” software, OS science operating system, “LabTeam” laboratory computer from MediSyst, Linden, Germany) in realtime and the power density spectra were determined in each case over 60 minutes. The division of the spectra into 6 different frequency ranges permitted the determination of pharmaco-specific changes in relation to the initial values, measured in each case before application, within these frequency bands.
# Application protocol of the substances: the substances were applied orally 45 minutes after the beginning of the measurements (initial value). Five minutes later, the measurements were started again, analyzed continuously at least over the next 5 hours and collected in 60 minute periods. The test substance was applied in a dose of 3 and 6 mg/kg (compound of the formula I). The experimental series was begun with the administration of saline solution (control), which led to no abnormal change (FIG. 6).
# The statistical comparison of the experiments with the results which were measured after administration of saline solution was effected with the aid of multivariant analysis according to Ahrens and Läuter (cf. H. Ahrens, J. Läuter, “Mehrdimensionale Varianzanalyse” [Multidimensional variance analysis]” (1974), Akademie Verlag, Berlin) on the basis of the changes within the individual frequency bands in all regions of the brain as variables.
compound,measurement,setting,value
O=C(CCc1ccc(O)c(O)c1)c1c(O)cc(O)c([C@@H]2O[C@H](CO)[C@@H](O)[C@H](O)[C@H]2O)c1O [aspalathin],effect on EEG frequencies in comparison with molecular constituents,"oral, rat",not by parts of the molecule
O=C(CCc1ccc(O)c(O)c1)c1c(O)c(C2OC(CO)C(O)C(O)C2O)c(O)c(C2c3c(O)cc(O)cc3OC(c3ccc(O)c(O)c3)C2O)c1O (centres unmarked) [compound according to formula I],effect on EEG frequencies in comparison with molecular constituents,"oral, rat",the effect can be achieved
same,changes in EEG frequencies / power density compared with saline solution,,stable changes in the power density in all areas of the brain
same,changes in EEG frequencies / power density compared with saline solution,listed as compound according to the formula I,dose-dependent changes in the EEG frequencies
same,pattern of changes in electrical brain activity compared with reference medicaments,"oral single dose, rat","corresponded to those after administration of metanicotine, galantamine, tacrine, L-DOPA or nefopam"
same,"discriminance analysis of EEG frequency changes (four regions of the brain, 6 frequency bands, 24 variables)","rat, compared with medicaments of the database","close to that of galantamine, tacrine and nefopam"
same,crossing of the blood-brain barrier (inferred from central nervous activity),"rat, oral, substance or its metabolites",evidently cross the blood-brain barrier
catechin [reference compound],effect on EEG frequencies in comparison with molecular constituents,"oral, rat",not by parts of the molecule
